Among the data in PubChem BioAssay AID463074 (Broad Institute, 2010) are AC50 values, retold here.

Structures are written as SMILES. Calls of active or inactive are those of the source.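 Rule for the calls: active = AC50 no more than tenfold above the top dose tested, or full inhibition at every dose with a flat fit (cut at about 19 µM in these data); inconclusive = flat curve fit with inhibition between 30% and 70%, or poor fit; inactive = AC50 more than tenfold above the top dose tested.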 Residues, ends and D or L forms follow the SMILES beside them. *: point of attachment. Boc = CC(C)(C)OC(=O)*; Bn = c1ccc(C*)cc1

The assay relates to HMLE_sh_eGFP viability, CellTiter-Glo luminescence, 72 h. Briefly: cytotoxicity in HMLE control line with eGFP shRNA, dose response, counter-screen for HMLE_sh_ECad selective toxicity project, cell-based, HMLE_sh_eGFP, luminescence (AID 463074).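 Note: counterscreen control line to flag general toxicity for the HMLE_sh_ECad screen; potency for loss of viability as luminescence drops below DMSO wells.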
As usually defined, the AC50 is the midpoint of the concentration-response curve, whichever way the signal moves. With `C[C@@H](CSc1ccc(Br)cc1)CN1CC[C@H](NC(=O)OCc2ccccc2)CCC1=O`, the AC50 was 5.5 µM. As for `CC12CCC(C/C1=N\N=C1\NC(=O)/C(=C\c3ccc(Cl)cc3)S1)C2(C)C` (stereo not drawn), the figure is 3.25 µM; as for `CCOC(=O)Nc1ccc2nc(Sc3ccc(Cl)cc3)sc2c1`, 2.97 µM.

With `Cc1cc(C)c2c(c1)/C(=C/C(=O)c1ccc(Br)s1)C(=O)N2`, the AC50 was 5.47 µM. For `CNC(=S)N/N=C/c1cn(Cc2ccc(C)cc2)c2ccccc12` the value was 5.94 µM; for `COc1ccc(-c2sc3ccccc3c2/C=C/c2ccc(N)cc2)cc1`, 15.8 µM; for `Cc1cc(O)c(C(C)C)cc1C1(c2cc(C(C)C)c(O)cc2C)OC(=O)c2ccccc21`, 3.23 µM.

As to `COc1ccc(C(=O)/C=C2/C(=O)Nc3ccccc32)c(OC)c1`, the AC50 is 6.75 µM.

In the case of `O=c1c2ccccc2oc2ccc(C#CC3(O)CCCCC3)cc12`, the AC50 was 7.11 µM. As for `COc1ccc(-c2csc(NC(=S)NC(=O)/C=C/c3ccco3)n2)cc1OC`, the figure is 3.72 µM; as for `Cc1cccc(Cn2cc(/C=C/[N+](=O)[O-])c3ccccc32)c1`, 3.47 µM. As for `COc1ccc(Nc2nc(N)c([N+](=O)[O-])c(NC3CCCCC3)n2)cc1`, the figure is 4.58 µM; as for `CCNC(=O)c1c(NC(=O)c2cc(-c3cc(C)ccc3O)n[nH]2)sc2c1CCCC2`, 4.99 µM. As to `C/C(N=Nc1nc2ccccc2s1)=N\Nc1ccccc1O`, the AC50 was 6.1 µM.

`CCc1ccccc1Nc1nn2c(=O)c3ccc(C(=O)NCc4ccccn4)cc3nc2s1`: the AC50 is under 0.16 µM. As for `CC(C)CC(NC(=O)C(NC(=O)C(Cc1ccc(OCc2ccccc2)cc1)NC(=O)OC(C)(C)C)C(C)C)C(N)=O` (stereo not drawn) (Boc-Tyr(Bn)-Val-Leu-NH2; configuration not given here), the figure is > 19.5 µM (inactive); as for `CN1CCN(c2ccc(S(=O)(=O)N3CCCCC3)cc2NC(=O)/C=C/c2ccc(Cl)c([N+](=O)[O-])c2)CC1`, 4.42 µM.

Consider `COc1ccc(N(C(=O)c2ccccc2C)S(=O)(=O)c2cccs2)cc1`, for which the AC50 is 0.231 µM. With `CCOC(=O)[C@@H]1[C@H]2COc3cc(OC)ccc3[C@H]2N2C(=O)N(c3ccc(C(F)(F)F)cc3)C(=O)[C@]12C`, the AC50 is 4.62 µM.

On to `COc1ccc(C(=O)CSc2nnc(CN3CCCCC3)n2-c2ccc(Cl)cc2)cc1OC`, for which the AC50 was 9.46 µM. Regarding `Cc1onc(-c2c(Cl)cccc2Cl)c1C(=O)N/N=C(\N)COc1ccc(Cl)cc1`, the AC50 is 3.8 µM. Take `Cn1cnc(Sc2ncnc3nc[nH]c23)c1[N+](=O)[O-]`: the AC50 was 3.26 µM. For `COC(=O)c1ccccc1NC(=O)c1nc(S(=O)(=O)Cc2ccccc2)ncc1Cl` the value was 3.25 µM. As for `COc1cccc(/C=C/C(=O)c2ccc(NS(=O)(=O)c3ccc(C)cc3)cc2)c1`, the figure is 3.22 µM. As for `C=C(C)COc1ccc(-c2n[nH]c(C)c2-c2ccc(OC)cc2)c(O)c1`, the figure is 4.47 µM; as for `Cc1ccc(/C=C/C(=O)N2CC(C)CC(C)C2)o1` (stereo not drawn), 17 µM; as for `CC12CCC(C/C1=N\N=C1\NC(=O)/C(=C\c3cccc(Br)c3)S1)C2(C)C` (stereo not drawn), 2.49 µM.

Regarding `Cc1ccnc(Nc2nc(-c3ccc(O)cc3O)cs2)c1`, the AC50 is 14.9 µM. For `COC(=O)c1c(NC(=O)c2ccccc2)sc2c1CC(C)(C)OC2` the value was > 19.5 µM (inactive); for `O=C(Nc1ccc(O)c(-c2nc3ccccc3o2)c1)C1(c2ccc(Br)cc2)CCCC1`, > 19.5 µM (inactive). For `Oc1ccc(/C=C/c2nc(-c3ccccc3O)n(-c3ccccc3)n2)cc1` the value was 6.7 µM; for `Cc1ccc2nc(NNC(=O)c3ccc(S(=O)(=O)N4CCc5ccccc5C4)cc3)sc2c1`, 3.91 µM. `C=CCSC(=C(C#N)C#N)c1cc2c([nH]1)CCCC2`: the AC50 is 13.5 µM.
